Experimental data taken from US11918645B2, “Vaccines against hepatitis B virus” (priority 2012, dated 2024).

What was measured:
[1] = preparation of pool 22
HLA-B*3501 = HLA-B*3501 (Homo sapiens, UniProt P01889, A329T/A93T/A95T/C349S/D201E/D98Y/E176V/E187L/E204Q/E69T/I218V/K202T/L119I/Q94N/R155S/R180L/S121R/S35A/S48A/T118I/V127L/V306I/V36M/Y140S/Y91F); assay: ProImmune REVEAL MHC class I binding assay of nonamers; details: score as % of positive control peptide
From the text: (§1) The number of HLA class I binding registers contained in each peptide may be determined by determining the ability of the peptide to bind to a range of frequently occurring HLA class I molecules. HLA class I binding may be measured using the ProImmune REVEAL® MHC-peptide Binding Assay (ProImmune Ltd, Oxford, UK). The REVEAL™ MHC peptide-binding assay measures the ability of each peptide to stabilize the ternary MHC-peptide complex for […], HLA-A*0201, HLA¬A*0301, HLA-A*2402, HLA-B*0702, HLA-B*0801, HLA-B*3501 representative of main HLA class I supertypes. Each tested peptide is given a score relative to a pass/fail control peptide and also compared to a positive control peptide.
(§2) Detection is based on the presence or absence of the native conformation of the MHC-peptide complex. The highly frequent HLA class I alleles (HLA-A*0201, A*0301, A*1101, A*2402, B*0702, B*0801, and B*3501) were selected. Binding to MHC molecules was compared to that of a known T-cell epitope, a positive control peptide, with very strong binding properties. […] The score of the test peptide is reported quantitatively as a percentage of the signal generated by the positive control peptide, and the peptide is indicated as having a putative pass or fail result. Good binders are considered to be those peptides with scores 45% of the positive control as defined by ProImmune.

HLA-A*1101 = biological target: T1, HLA-A*1101 (Homo sapiens, UniProt P04439, A114D/D185E/E176A/F33Y/L180Q/S129P/T187R); assay: as above; details: score as % of positive control peptide
T1 construct: purchased ProImmune
From the text: as §1, §2

HLA-A*0301 = biological target: T2, HLA-A*0301 (Homo sapiens, UniProt P04439); assay: as above; details: score as % of positive control peptide
T2 construct: purchased ProImmune
From the text: as §1, §2

HLA-B*0702 = biological target: T3, HLA-B*0702 (Homo sapiens, UniProt P01889); assay: as above; details: score as % of positive control peptide
T3 construct: purchased ProImmune
From the text: as §1, §2

HLA-A*2402 = HLA-A*2402 (Homo sapiens, UniProt P04439, D101N/D140Y/D185E/E176V/E190D/F33S/G103R/G107R/I119L/I121M/I306V/K335N/L105A/L180Q/L300P/N151K/N90K/Q86E/Q94H/R106L/R138H/R89G/T104I/T345S/V100E/W191G/Y123F); assay: as above; details: score as % of positive control peptide
From the text: as §1, §2

HLA-B*0801 = HLA-B*0801 (Homo sapiens, UniProt P01889, A93T/A95T/D138N/E176V/E187T/K202T/Q94N/R180D/S35A/V36M/Y33D/Y91F); assay: as above; details: score as % of positive control peptide
From the text: as §1, §2

HLA-A*0201 = HLA-A*0201 (Homo sapiens, UniProt P04439, D140Y/D185E/D98H/E176V/E277Q/G131W/G231S/I119V/I121R/I166T/I218V/L300P/L318F/N151K/N90K/P208A/P217A/Q86G/Q94H/R138H/R169H/T345S); assay: as above; details: score as % of positive control peptide
From the text: as §1, §2

[2] = tested on: HLA-DR3 (α1*01:01;β1*03:0); assay: ProImmune REVEAL MHC class II binding assay of long peptides; parameters: species or system human; details: percentage of the signal of the positive control peptide; positive binding score >=15%
From the text: (§3) The highly frequent HLA class II alleles HLA-DR1 (α1*01:01;β1*01:01), HLA-DR15 (α1*01:01;β1*15:01), HLA-DR3 (α1*01:01;β1*03:01), HLA-DR4 (α1*01:01;β1*04:01), HLA-DR11 (α1*01:01;β1*11:01), HLA-DR13 (α1*01:01;β1*13:01), and HLA-DR7 (α1*01:01;β1*07:01) were selected. Each peptide was given a score relative to the positive control peptide, which is a known T-cell epitope. The score of the test peptide is reported quantitatively as a percentage of the signal generated by the positive control peptide, and the peptide is indicated as having a putative pass or fail result. Good binders are considered to be those peptides with scores >=15% of the positive control as defined by Proimmune.

[3] = tested on: HLA-DR1 (α1*01:01;β1*01:01); assay: as above; parameters: species or system human; details: percentage of the signal of the positive control peptide; positive binding score >=15%
From the text: as §3

[4] = tested on: PBMC from chronic HBV-infected subjects; assay: IFNγ ELISpot of PBMC restimulated with individual unconjugated HBV long peptides (Example 5); type: cell-based, human; details: for T cell responses (IFNγ ELISpot), level and frequency of responders: HBeAg-negative inactive carriers and HBeAg-negative treated subjects, 5 μg/mL, 18 h, FIGS. 9 and 10; for T cell responses (IFNγ ELISpot) grouped by infecting HBV genotype: genotypes A, B, C & D, FIG. 11; for T cell responses (IFNγ ELISpot) grouped by ethnic background: three ethnic groups, FIG. 12
Description: One vial of PBMC from each subject (containing 1×10^7 cells) was thawed and lymphocyte numbers were determined using a Scepter™ automated handheld cell counter. PBMC were cultured in 2 mL culture medium (CM: RPMI-1640 Glutamax supplemented with 5% human AB serum) in 24 well cell culture plates at a concentration of 1×10^6 cells/mL for a total of 11 days. Cells were stimulated with a mixture of the nine HBV-derived long peptides described in Example 3.
Each peptide was used at a final concentration of 1 μg/peptide/mL. On Day 4, IL-2 and IL-15 were added to the cultures to final concentrations of 10 IU/mL and 10 ng/mL respectively. On Day 10, cells were washed twice in CM and cultured with 10 IU/mL IL-2 for 1 additional day. On Day 11, cells were washed twice in CM, counted and incorporated in a human IFNγ (interferon-gamma) ELISpot assay or intracellular cytokine staining.
Cells from short term cultures were plated in triplicate wells at 5×10^4 PBMC/well. Final antigen concentrations used were: 5 μg/mL for each individual peptides; PHA positive control: 1 μg/mL.

HLA class II alleles = assay: ProImmune REVEAL MHC class II binding assay, summary over the seven alleles; parameters: species or system human; details: number of class II alleles for which positive binding (score >=15%) was detected
From the text: as §3

HLA class I alleles = assay: ProImmune REVEAL MHC class I binding assay, summary over the seven alleles; parameters: species or system human; details: for Number of allele (b): number of class I alleles for which positive binding was detected; for Number of HLA binders (a): total number binding epitopes detected for each long peptide, seven class I alleles
From the text: as §1, §2

[5] = biological target: T4, HLA-DR7 (α1*01:01;β1*07:01) (Homo sapiens, UniProt P01903+P01911, A100R/A102G/A103Q/D57E/D86V/E43K/F76Y/K127E/L162R/M171V/P40G/Q125H/Q99D/R195Q/R33Q/R42Y/R54Q/S133A/S149N/S66F/T210M/V115G/Y107V/Y59L/Y89S); assay: ProImmune REVEAL MHC class II binding assay of long peptides; details: percentage of the signal of the positive control peptide; positive binding score >=15%
T4 construct: purchased ProImmune
From the text: as §3

[6] = biological target: T5, HLA-DR15 (α1*01:01;β1*15:01) (Homo sapiens, UniProt P01903+P01911); assay: as above; details: percentage of the signal of the positive control peptide; positive binding score >=15%
T5 construct: purchased ProImmune
From the text: as §3

[7] = tested on: HLA-DP4 (α1*01:03;β1*04:01); assay: as above; parameters: species or system human; details: percentage of the signal of the positive control peptide; positive binding score >=15%
[8] = biological target: T6, HLA-DR13 (α1*01:01;β1*13:01) (Homo sapiens, UniProt P01903+P01911, A100E/A169T/K41T/L162R/M171V/P40S/Q125H/Q178H/Q39Y/Q99D/R42S/S66N/W38E/Y61H); assay: as above; details: percentage of the signal of the positive control peptide; positive binding score >=15%
T6 construct: purchased ProImmune
From the text: The highly frequent HLA class II alleles HLA-DR1 (α1*01:01;β1*01:01), HLA-DR15 (α1*01:01;β1*15:01), HLA-DR3 (α1*01:01;β1*03:01), HLA-DR4 (α1*01:01;β1*04:01), HLA-DR11 (α1*01:01;β1*11:01), HLA-DR13 (α1*01:01;β1*13:01), and HLA-DR7 (α1*01:01;β1*07:01) were selected. Each peptide was given a score relative to the positive control peptide, which is a known T-cell epitope.

T6 sequence (P01903 26-216, other chains not shown): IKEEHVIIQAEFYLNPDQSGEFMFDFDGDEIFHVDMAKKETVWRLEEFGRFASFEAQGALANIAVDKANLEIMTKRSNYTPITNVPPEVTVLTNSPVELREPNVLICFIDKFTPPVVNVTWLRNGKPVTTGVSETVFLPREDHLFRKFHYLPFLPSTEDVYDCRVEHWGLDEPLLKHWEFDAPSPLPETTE

Row | Compound | dispersibility / solubility [1] | Number of nonamers having a binding score >= 45%, HLA-B*3501 (HLA-B*3501) | Number of nonamers having a binding score >= 45%, HLA-A*1101 (HLA-A*1101) | Number of nonamers having a binding score >= 45%, HLA-A*0301 (HLA-A*0301) | Number of nonamers having a binding score >= 45%, HLA-B*0702 (HLA-B*0702) | Number of nonamers having a binding score >= 45%, HLA-A*2402 (HLA-A*2402) | Number of nonamers having a binding score >= 45%, HLA-B*0801 (HLA-B*0801) | Number of nonamers having a binding score >= 45%, HLA-A*0201 (HLA-A*0201) | binding score, HLA-DR3 (α1*01:01;β1*03:0) [2] | binding score, HLA-DR1 (α1*01:01;β1*01:01) [3] | T cell responses (IFNγ ELISpot), level and frequency of responders [4] | T cell responses (IFNγ ELISpot) grouped by infecting HBV genotype [4] | T cell responses (IFNγ ELISpot) grouped by ethnic background [4] | Number of allele (a) (HLA class II alleles) | Number of allele (b) (HLA class I alleles) | Number of HLA binders (a) (HLA class I alleles) | binding score, HLA-DR7 (α1*01:01;β1*07:01) [5] | binding score, HLA-DR15 (α1*01:01;β1*15:01) [6] | binding score, HLA-DP4 (α1*01:03;β1*04:01) [7] | binding score, HLA-DR13 (α1*01:01;β1*13:01) [8]
1 | CC[C@H](C)[C@H](NC(=O)[C@H](CC(C)C)NC(=O)[C@H](CS)NC(=O)[C@H](CC(C)C)NC(=O)[C@H](CC(C)C)NC(=O)[C@H](CC(C)C)NC(=O)[C@@H](NC(=O)[C@@H](N)Cc1ccccc1)[C@@H](C)CC)C(=O)N[C@@H](Cc1ccccc1)C(=O)N[C@@H](CC(C)C)C(=O)N[C@@H](CC(C)C)C(=O)N[C@H](C(=O)N[C@@H](CC(C)C)C(=O)N[C@@H](CC(C)C)C(=O)N[C@@H](CC(=O)O)C(=O)N[C@@H](Cc1ccc(O)cc1)C(=O)N[C@@H](CCC(N)=O)C(=O)NCC(=O)N[C@@H](CCSC)C(=O)N[C@@H](CC(C)C)C(=O)O)C(C)C [SEQ ID NO: 213] | could not be dispersed due to insolubility | – | – | – | – | – | – | – | – | – | – | – | – | – | – | – | – | – | – | –
2 | NP877: unconjugated HBV long peptide, core 860-890 | – | 0 | 0 | 0 | 1 | 2 | 1 | 2 | 5.58% | 0.24% | highest level of responses in both patient populations and in the highest proportion of subjects | highest responses across all four genotypes A, B, C & D | highest responses across all three ethnic groups | 1 | 4 | 6 | 2.78% | 0.09% | 0.04% | –
3 | NP856(K): unconjugated HBV long peptide, core 839-873 + KKK (LTFGRETVLEYLVSFGVWIRTPPAYRPPNAPILSTKKK; HBV CONSENSUS SEQUENCE) | – | 0 | 0 | 0 | 2 | 4 | 1 | 4 | 0.13% | 2.33% | highest level of responses in both patient populations and in the highest proportion of subjects | highest responses across all four genotypes A, B, C & D | highest responses across all three ethnic groups | 0 | 4 | 11 | 0.40% | 5.71% | 10.72% | 0.00%
4 | CC[C@H](C)[C@H](NC(=O)[C@H](Cc1ccccc1)NC(=O)[C@H](CC(C)C)NC(=O)[C@H](Cc1ccccc1)NC(=O)[C@@H](NC(=O)[C@@H](NC(=O)[C@H](Cc1ccccc1)NC(=O)[C@H](CCCNC(=N)N)NC(=O)[C@H](CCCNC(=N)N)NC(=O)[C@@H](N)CC(C)C)[C@@H](C)CC)[C@@H](C)CC)C(=O)N[C@@H](CC(C)C)C(=O)N[C@@H](CC(C)C)C(=O)N[C@@H](CC(C)C)C(=O)N[C@@H](CS)C(=O)N[C@@H](CC(C)C)C(=O)N[C@H](C(=O)N[C@@H](Cc1ccccc1)C(=O)N[C@@H](CC(C)C)C(=O)N[C@@H](CC(C)C)C(=O)N[C@H](C(=O)O)C(C)C)[C@@H](C)CC [SEQ ID NO: 212] | could not be dispersed due to insolubility | – | – | – | – | – | – | – | – | – | – | – | – | – | – | – | – | – | – | –
